Reference: US20170333391A1, “METHOD FOR DELAYING THE ONSET OF PULMONARY FIBROSIS OR TREATING PULMONARY FIBROSIS” (EVERFRONT BIOTECH INC., priority 2016, published 2017)

Assays:
[1] = system: Rat type II alveolar cell, L2 cell line; assay: Cell survival test (MTT analysis) under H2O2 oxidative stress; type: cell-based; conditions: 24 hours, control group = 100%
Procedure: The rat type II alveolar cell, L2 cell line (ATCC® CCL149™) were seeded into a 96-well plate at a density of 5×10^3 cells/well, 48 wells in total (separated into a control group and five experimental groups, 8 wells for each group). The cells were cultured until the next day, and then the mediums were removed. Each group was respectively treated under the following conditions to conduct follow-up experiments:
(1) Control group: cells were cultured in a F-12K medium (Kaighn's Modification of Ham's F-12 Medium, ATCC® 30-2004™) for 24 hours;
(2) Group 1: cells were cultured in a F-12K medium containing H2O2 (0.1 mM) for 24 hours;
(3) Group 2: cells were cultured in a F-12K medium containing H2O2 (0.1 mM) and compound (1) (5 μg/ml) for 24 hours;
(4) Group 3: cells were cultured in a F-12K medium containing H2O2 (0.1 mM) and N-acetylcysteine (NAC) (2 mM) for 24 hours;
(5) Group 4: cells were cultured in a F-12K medium containing H2O2 (0.2 mM) and compound (1) (5 μg/ml) for 24 hours; and
(6) Group 5: cells were cultured in a F-12K medium containing H2O2 (0.2 mM) and NAC (2 mM) for 24 hours.
The mediums were removed after culturing was complete, and then each group was respectively treated under the following conditions: F-12K mediums containing 10% of 3-(4,5-Dimethylthiazol-2-yl)-2,5-diphenyltetrazolium bromide (MTT) were added into each well, and cultured for 1 hour. Thereafter, the mediums were removed, and a suitable amount of dimethyl sulfoxide (DMSO) was added into the wells. An Enzyme-Linked ImmunoSorbent Assay reader (ELISA reader) was then used for detecting the absorbance of each group at a wavelength of 595 nm (OD595nm). The average value of each group was respectively calculated (n=8), and then the result of the control group served as the basis for calculating the relative survival rates of the other groups.

[2] = system: type I collagen; assay: Type I collagen expression in TGF-β1-induced NHLF, western blotting (2-1); type: cell-based, human; conditions: uninduced group = 1, TGF-β1-only group = 3.61
Procedure: Normal Human lung fibroblasts (NHLF) were seeded into 6 cm culture dishes at a density of 2×10^5 cells/dish, comprising a control group and three experimental groups (4 dishes in total). The cells were cultured until the next day, and then the mediums were removed. Each group was respectively treated under the following conditions to conduct follow-up experiments: • (1) Positive control group: cells were cultured in a FGM-2 medium containing 1% serum for 36 hours; • (2) Negative control group: cells were cultured in a FGM-2 medium containing 1% serum and TGF-β1 (5 ng/ml) for 36 hours; • (3) Low-dose group: cells were firstly cultured in a FGM-2 medium containing 1% serum and TGF-β1 (5 ng/ml) for 12 hours, and then compound (1) was added into the medium to provide a final concentration of 15 μg/ml; thereafter, the cells were cultured for another 24 hours; and • (4) High-dose group: cells were firstly cultured in a FGM-2 medium containing 1% serum and TGF-β1 (5 ng/ml) for 12 hours, and then compound (1) was added into the medium to provide a final concentration of 25 μg/ml; thereafter, the cells were cultured for another 24 hours.
Thereafter, the proteins in the cells of each group were extracted, and the expressions of type I collagen in the NHLF cells of each group were measured with western blotting, wherein the β-actin served as the internal control. […]

[3] = system: p-smad2/3 protein; assay: p-smad2/3 protein expression in TGF-β1-induced NHLF, western blotting (Example 4); type: cell-based, human; conditions: uninduced control = 1, TGF-β1-only group A = 1.42
Procedure: Normal Human lung fibroblasts (NHLF) were seeded into 6 cm culture dishes at a density of 2×10^5 cells/dish, comprising a control group and five experimental groups (6 dishes in total). The cells were cultured until the next day, and then the mediums were removed. Each group was respectively treated under the following conditions to conduct follow-up experiments: • (1) Control group: cells were cultured in a FGM-2 medium containing 1% serum for 36 hours; • (2) Group A: cells were cultured in a FGM-2 medium containing 1% serum and TGF-β1 (5 ng/ml) for 36 hours; • (3) Group B: cells were firstly cultured in a FGM-2 medium containing 1% serum and TGF-β1 (5 ng/ml) for 12 hours, and then compound (1) was added into the medium to provide a final concentration of 15 μg/ml; thereafter, the cells were cultured for another 24 hours; • (4) Group C: cells were firstly cultured in a FGM-2 medium containing 1% serum and TGF-β1 (5 ng/ml) for 12 hours, and then compound (1) was added into the medium to provide a final concentration of 30 μg/ml; thereafter, the cells were cultured for another 24 hours; • (5) Group D: cells were firstly cultured in a FGM-2 medium containing 1% serum and TGF-β1 (5 ng/ml) for 12 hours, and then compound (2) was added into the medium to provide a final concentration of 100 μg/ml; thereafter, the cells were cultured for another 24 hours; and • (6) Group E: cells were firstly cultured in a FGM-2 medium containing 1% serum and TGF-β1 (5 ng/ml) for 12 hours, and then compound (2) was added into the medium to provide a final concentration of 200 μg/ml; thereafter, the cells were cultured for another 24 hours.
Thereafter, the proteins in the cells of each group were extracted, and the expressions of BMP-7 protein, TGF-β protein and p-smad2/3 protein in the NHLF cells of each group were measured with western blotting. The results of the control group served as the basis for calculating the relative expression levels of the other groups.

CCCC=C1OC(=O)c2ccccc21 [compound (1)]
Relative survival rate ([1]; Group 2: H2O2 0.1 mM + compound (1) 5 μg/ml, H2O2 0.1 mM alone = 38.9%): 109.4% | Relative survival rate ([1]; Group 4: H2O2 0.2 mM + compound (1) 5 μg/ml): 80.6% | Relative expression level of the type I collagen (fold) ([2]; High-dose group: TGF-β1 5 ng/ml 12 h, then compound (1) 25 μg/ml 24 h): 1.83 fold | Relative expression level of the type I collagen (fold) ([2]; Low-dose group: TGF-β1 5 ng/ml 12 h, then compound (1) 15 μg/ml 24 h): 3.56 fold | Relative expression level (fold) p-smad2/3 protein ([3]; Group B: TGF-β1 5 ng/ml 12 h, then compound (1) 15 μg/ml 24 h): 0.82 fold | Relative expression level (fold) p-smad2/3 protein ([3]; Group C: TGF-β1 5 ng/ml 12 h, then compound (1) 30 μg/ml 24 h): 1.08 fold
